From publication PMC8901636, “Preclinical studies of Flonoltinib Maleate, a novel JAK2/FLT3 inhibitor, in treatment of JAK2^V617F-induced myeloproliferative neoplasms” (Blood Cancer Journal, 2022)
pIC50: −log10 of the molar value.

What was measured:
JAK1/JAK2 = assay: Cytokine-stimulated cell-based assay, G-CSF-induced p-STAT3 in HEL cells; conditions: Homo sapiens
Text: To further determine the selectivity of FM to inhibit different JAK isotypes in cell lines, we performed a series of cytokine-stimulated cell-based assays and assessed the signal transduction of JAK subtypes.
(A) Inhibition of cytokine induced JAK auto-phosphorylation by FM in HEL cell lines. Raw data about HEL (B) and Ba/F3-JAK2^V617F (C) cells were supplemented with different concentrations of FM for cell cycle analysis. […] (F) p-FLT3, p-STAT5, and p-ERK in Molm-13 cell line were also assessed after 3 hours exposure with increasing concentrations of FM.

JAK3 = JAK3 (Homo sapiens, UniProt P52333); assay: In vitro kinase assay
JAK3, sequence (P52333 whole entry): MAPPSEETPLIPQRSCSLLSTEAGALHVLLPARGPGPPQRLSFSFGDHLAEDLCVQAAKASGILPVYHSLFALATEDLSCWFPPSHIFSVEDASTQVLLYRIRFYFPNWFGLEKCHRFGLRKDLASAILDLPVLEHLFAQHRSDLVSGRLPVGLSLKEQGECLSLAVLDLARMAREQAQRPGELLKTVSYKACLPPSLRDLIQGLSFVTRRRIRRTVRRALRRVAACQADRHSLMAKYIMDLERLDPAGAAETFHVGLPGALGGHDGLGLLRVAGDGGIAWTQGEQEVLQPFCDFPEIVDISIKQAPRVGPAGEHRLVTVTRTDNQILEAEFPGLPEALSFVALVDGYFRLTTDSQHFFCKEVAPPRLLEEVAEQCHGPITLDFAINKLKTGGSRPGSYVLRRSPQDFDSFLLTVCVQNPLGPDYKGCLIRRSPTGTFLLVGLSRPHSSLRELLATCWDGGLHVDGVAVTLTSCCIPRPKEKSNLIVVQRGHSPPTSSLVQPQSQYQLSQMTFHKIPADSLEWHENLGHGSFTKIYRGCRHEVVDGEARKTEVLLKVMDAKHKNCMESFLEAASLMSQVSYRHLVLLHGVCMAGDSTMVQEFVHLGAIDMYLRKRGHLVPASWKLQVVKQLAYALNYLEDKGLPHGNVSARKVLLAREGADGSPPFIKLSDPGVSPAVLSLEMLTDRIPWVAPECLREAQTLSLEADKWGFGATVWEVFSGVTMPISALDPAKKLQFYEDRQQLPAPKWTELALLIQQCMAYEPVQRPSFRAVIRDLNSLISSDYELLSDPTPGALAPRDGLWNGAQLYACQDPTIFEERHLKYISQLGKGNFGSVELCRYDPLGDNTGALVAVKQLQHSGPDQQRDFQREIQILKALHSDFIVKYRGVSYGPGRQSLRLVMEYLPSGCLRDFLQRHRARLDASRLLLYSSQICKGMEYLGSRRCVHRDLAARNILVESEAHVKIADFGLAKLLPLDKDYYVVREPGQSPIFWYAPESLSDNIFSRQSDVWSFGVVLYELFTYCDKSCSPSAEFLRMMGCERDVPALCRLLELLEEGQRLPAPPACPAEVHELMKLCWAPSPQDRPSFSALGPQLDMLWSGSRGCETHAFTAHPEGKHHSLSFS

## Cc1cnc(Nc2ccc(N3CCC(N(C)CCO)CC3)c(F)c2)nc1-c1cnn(C(C)C)c1 [FM, 2-((1-(2-fluoro-4-((4-(1-isopropyl-1H-pyrazol-4-yl)-5-methylpyrimidin-2-yl)amino)phenyl)piperidin-4-yl)(methyl)amino)ethan-1-ol]
JAK1/JAK2
  pIC50: 6.34
JAK3
  pIC50: 6.25
